# Assay results: US20130096100A1, “DI(ARYLAMINO)ARYL COMPOUND” (ASTELLAS PHARMA INC., priority 2007, published 2013)
# pIC50: −log10 of the molar value.
# Legend:
# [1] = biological target: T1, EML4-ALK fusion protein v1 (Homo sapiens, UniProt Q9UM73, D1529E/I1461V/K1491R); assay: Inhibitory activity against the kinase activity of EML4-ALK fusion protein v1 (Test Example 1); assay type: biochemical; conditions: ATP 100 μM, reaction 1 hour, HTRF KinEASE-TK
# T1 construct: FLAG (N); made in house
# Description: (§1) EML4-ALK fusion protein v1 (purified from BA/F3 cells expressing EML4-ALK fusion protein v1) was investigated for its phosphorylation activity toward a peptide substrate by using a kinase activity detection kit (HTRF KinEASE-TK; Cisbio Inc.). […] The ATP concentration used was 100 μM. Another reaction solution was prepared to contain the enzyme protein but no test compound (in which the solvent DMSO alone was added at 0.4% in place of the test compound), followed by reaction in the same manner with or without ATP addition. […] The concentration causing 50% inhibition (IC50) was calculated for each test compound by the logistic regression method.
# (§2) N-terminally FLAG-tagged EML4-ALK fusion protein v1 was inserted into a vector pMX-iresCD8 capable of co-expression of insert cDNA and cell surface antigen CD8 (J. Biol. Chem., 2001, vol. 276, p. 39012-39020) to create a vector FLAG-EML4-ALKv1/pMX-iresCD8 expressing both FLAG-EML4-ALKv1 and CD8. FLAG-EML4-ALKv1/pMX-iresCD8 was used to create a recombinant retrovirus in the same manner as described above and infected into mouse lymphoid cell line BA/F3 cells. Using a magnetic bead reagent for cell separation and a purification column (anti-CD8 monoclonal antibody immobilized on magnetic beads and a MiniMACS purification column; both are products of Miltenyi Biotec Inc.), cell surface CD8-expressing cells were purified conveniently. […] After washing 3 times with PBS, the cells were lysed in a lysis solution (50 mM Tris.HCl (pH 7.4), 150 mM NaCl, 1% Triton X100, 5 mM EDTA, 5 mM EGTA, 1 mM NaVO4, 1 mM DTT and protease inhibitor cocktail complete). The EML4-ALK fusion protein v1 present in the supernatant obtained after centrifugation was purified using ANTI-FLAG M2 Affinity Gel (SIGMA-ALDRICH Inc.) according to the method described in the product information document.
# (§3) The EML4-ALK fusion protein v1 purified as above was investigated for its phosphorylation activity toward a peptide substrate using a kinase activity detection kit (HTRF KinEASE-TK; Cisbio Inc.). Using TK substrate 1, which was included in the kit, as the substrate, and after adding no ATP or 100 μM ATP, the mixtures were reacted at room temperature for 1 hour, and the count of HTRF was detected as recommended by the Kits manufacturer.
# [2] = tested on: human non-small cell lung cancer cell line NCI-H2228 cells (EML4-ALK fusion protein-expressing cells); assay: Inhibitory effect against anchorage-independent cell growth of NCI-H2228 cells (Test Example 3); assay type: cell-based; conditions: 120 h, spheroid plate, 5 days, CellTiter-Glo
# Source text: Measurement for anchorage-independent cell growth (colony method, etc) has been known to be a system for investigating the anticancer action (pharmacological effect) of test compounds (Clinical Oncology, second edition, Cancer and Chemotherapy Publishers Inc.). In place of the colony method, there is a following method using spheroid plates for measuring the growth of non-attached cells.
# (§4) In a 96-well spheroid plate (Sumilon Celltight Spheroid 96U; Sumitomo Bakelite Co., Ltd., Japan), human non-small cell lung cancer cell line NCI-H2228 cells were seeded at 2000 cells per well in RPMI1640 medium (Invitrogen) containing 10% fetal bovine serum. NCI-H2228 cells are those expressing another EML4-ALK fusion protein, which is different from the EML4-ALK fusion protein v1 because it is encoded by an EML4-ALK fusion polynucleotide whose fusion point on EML4 cDNA is different from that of the EML4-ALK fusion polynucleotide v1, but whose ALK region is the same as that of the EML4-ALK fusion polynucleotide v1. The above NCI-H2228 cells seeded in the plate were cultured overnight under 5% CO2 at 37° C., followed by addition of a test compound (final concentration: 10 μM to 1 nM). As a negative control, DMSO used as a solvent was added at the same concentration as the test compound. Then, the cells were cultured under 5% CO2 at 37° C. for 5 days. A cell counting reagent (CellTiter-Glo™ Luminescent Cell Viability Assay; Promega) was added and agitated for 20 minutes, followed by measurement with a luminometer (ML3000 microtiter plate luminometer; Dynatech Laboratories).
# [3] = tested on: human non-small cell lung cancer cell line HCC827 cells (mutant EGFR protein-expressing cells); assay: Inhibitory effect against anchorage-independent cell growth of HCC827 cells (Test Example 4); assay type: cell-based; conditions: 120 h, spheroid plate, 5 days, CellTiter-Glo
# Description: as §4
# Evaluation of Inhibitory Effect Against Anchorage-Independent Cell Growth of Human Non-Small Cell Lung Cancer Cell Line HCC827 Cells (Mutant EGFR (with Partial Deletion of Exon 19 in EGFR) Protein-Expressing Cells, American Type Culture Collection)
# Evaluation was performed in the same manner as shown in Test Example 3.
# [4] = tested on: v1 expressing 3T3 cells (tumor); assay: Antitumor effect on v1 expressing 3T3 cells inoculated in nude mice (Test Example 13); assay type: in vivo; conditions: oral 10 mg/kg once a day for 14 days, started 7 days after inoculation, BALB/c nude mice
# Description: 3×10^6 cells of v1 expressing 3T3 cells suspended in PBS were inoculated subcutaneously by injection to the back of 5 weeks old male BALB/c nude mice (Charles River Japan, Inc.). […] Administrations were performed once a day for 14 days, and body weight and tumor size were measured every other day. Tumor volume was calculated using the following formula.
# [Tumor volume (mm^3)]=[Tumor major axis (mm)]×[tumor minor axis (mm)]^2×0.5
# The antitumor effect of compound D was investigated by the similar procedure with the following exceptions. The administration of the compound was started after 6 days of the inoculation and carried out once a day for 10 days.
# [5] = biological target: T2, MUSK (Homo sapiens, UniProt O15146); assay: Inhibitory activity against the kinase activity of MUSK protein (Test Example 7); assay type: biochemical; set-up: purchased Carna Biosciences Inc., Japan; conditions: ATP 10 μM, reaction 1 hour, HTRF KinEASE-TK
# T2 sequence (O15146 24-869): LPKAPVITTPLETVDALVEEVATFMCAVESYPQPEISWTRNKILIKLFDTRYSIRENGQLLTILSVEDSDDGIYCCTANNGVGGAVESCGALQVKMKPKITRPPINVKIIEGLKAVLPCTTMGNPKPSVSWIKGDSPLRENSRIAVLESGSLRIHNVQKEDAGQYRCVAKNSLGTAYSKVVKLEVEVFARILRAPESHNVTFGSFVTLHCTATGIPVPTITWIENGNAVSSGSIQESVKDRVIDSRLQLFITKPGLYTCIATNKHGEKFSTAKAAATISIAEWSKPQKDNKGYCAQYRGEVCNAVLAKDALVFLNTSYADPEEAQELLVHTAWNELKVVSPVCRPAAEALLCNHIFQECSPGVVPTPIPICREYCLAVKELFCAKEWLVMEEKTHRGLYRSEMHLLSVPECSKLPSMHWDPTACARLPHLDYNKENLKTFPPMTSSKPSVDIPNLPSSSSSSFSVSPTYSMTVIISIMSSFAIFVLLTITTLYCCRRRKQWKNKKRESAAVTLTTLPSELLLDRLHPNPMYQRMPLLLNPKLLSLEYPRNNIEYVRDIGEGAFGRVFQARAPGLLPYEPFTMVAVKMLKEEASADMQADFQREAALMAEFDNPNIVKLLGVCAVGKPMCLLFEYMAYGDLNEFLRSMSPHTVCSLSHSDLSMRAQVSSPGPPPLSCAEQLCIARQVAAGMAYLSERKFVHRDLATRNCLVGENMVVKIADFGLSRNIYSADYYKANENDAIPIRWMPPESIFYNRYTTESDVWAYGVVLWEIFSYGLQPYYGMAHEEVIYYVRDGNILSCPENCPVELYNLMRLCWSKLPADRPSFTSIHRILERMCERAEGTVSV
# Description: as §1, with “MUSK” for “EML4-ALK fusion”, “(Carna Biosciences Inc., Japan)” for “v1 (purified from BA/F3 cells expressing EML4-ALK fusion protein v1)”, “10” for “100”
# [6] = biological target: T3, Mutant EGFR (L858R) protein (Homo sapiens, UniProt P00533, L858R); assay: Inhibitory activity against the kinase activity of mutant EGFR (L858R) protein (Test Example 2); assay type: biochemical; conditions: ATP 5 μM, reaction 1 hour, HTRF KinEASE-TK
# T3 construct: purchased Cana Biosciences Inc., Japan (sic; Carna Biosciences)
# Description: The ATP concentration used was 5 μM. Another reaction solution was prepared to contain the enzyme protein but no test compound (in which the solvent DMSO alone was added at 0.4% in place of the test compound), followed by reaction in the same manner with or without ATP addition. […] The concentration causing 50% inhibition (IC50) was calculated for each test compound by the logistic regression method.
# [7] = biological target: T1, EML4-ALK fusion protein v1; assay: Inhibitory effect of compounds against the in vitro kinase activity of EML4-ALK fusion protein v1, single concentration (Test Example 12(3)); assay type: biochemical; conditions: final concentration 10 μM
# Source text: as §2, §3
# T1 sequence (Q9UM73 with tags, fused parts or gaps I1461V/K1491R/D1529E): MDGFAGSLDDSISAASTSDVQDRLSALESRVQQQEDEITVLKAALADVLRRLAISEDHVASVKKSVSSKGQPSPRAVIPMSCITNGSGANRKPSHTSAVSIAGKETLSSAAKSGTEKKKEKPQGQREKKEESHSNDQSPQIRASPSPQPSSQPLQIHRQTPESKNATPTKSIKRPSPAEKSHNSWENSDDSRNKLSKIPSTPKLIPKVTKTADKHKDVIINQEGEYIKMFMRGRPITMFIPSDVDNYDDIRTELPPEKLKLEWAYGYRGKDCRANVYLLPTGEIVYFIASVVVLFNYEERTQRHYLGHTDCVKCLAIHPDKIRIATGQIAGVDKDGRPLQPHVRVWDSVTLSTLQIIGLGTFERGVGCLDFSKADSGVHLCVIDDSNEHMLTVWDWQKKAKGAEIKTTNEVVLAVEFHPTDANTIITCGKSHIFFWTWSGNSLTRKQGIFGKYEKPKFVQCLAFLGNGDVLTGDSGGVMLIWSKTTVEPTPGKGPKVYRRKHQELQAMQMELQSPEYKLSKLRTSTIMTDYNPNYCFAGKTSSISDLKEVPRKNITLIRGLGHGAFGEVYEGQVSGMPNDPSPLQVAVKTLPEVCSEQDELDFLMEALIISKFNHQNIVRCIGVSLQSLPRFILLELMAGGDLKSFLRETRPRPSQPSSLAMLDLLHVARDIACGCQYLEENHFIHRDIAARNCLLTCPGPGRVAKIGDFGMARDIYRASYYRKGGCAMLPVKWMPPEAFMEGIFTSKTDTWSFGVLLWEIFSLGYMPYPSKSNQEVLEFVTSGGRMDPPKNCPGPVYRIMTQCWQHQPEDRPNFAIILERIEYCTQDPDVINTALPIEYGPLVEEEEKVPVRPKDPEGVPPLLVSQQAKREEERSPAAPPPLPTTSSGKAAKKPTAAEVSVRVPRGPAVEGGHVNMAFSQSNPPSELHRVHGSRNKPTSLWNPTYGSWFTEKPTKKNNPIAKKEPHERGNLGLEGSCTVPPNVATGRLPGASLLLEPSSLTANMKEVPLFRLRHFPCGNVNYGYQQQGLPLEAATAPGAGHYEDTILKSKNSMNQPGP
# T3 sequence (P00533 25-1210 L858R): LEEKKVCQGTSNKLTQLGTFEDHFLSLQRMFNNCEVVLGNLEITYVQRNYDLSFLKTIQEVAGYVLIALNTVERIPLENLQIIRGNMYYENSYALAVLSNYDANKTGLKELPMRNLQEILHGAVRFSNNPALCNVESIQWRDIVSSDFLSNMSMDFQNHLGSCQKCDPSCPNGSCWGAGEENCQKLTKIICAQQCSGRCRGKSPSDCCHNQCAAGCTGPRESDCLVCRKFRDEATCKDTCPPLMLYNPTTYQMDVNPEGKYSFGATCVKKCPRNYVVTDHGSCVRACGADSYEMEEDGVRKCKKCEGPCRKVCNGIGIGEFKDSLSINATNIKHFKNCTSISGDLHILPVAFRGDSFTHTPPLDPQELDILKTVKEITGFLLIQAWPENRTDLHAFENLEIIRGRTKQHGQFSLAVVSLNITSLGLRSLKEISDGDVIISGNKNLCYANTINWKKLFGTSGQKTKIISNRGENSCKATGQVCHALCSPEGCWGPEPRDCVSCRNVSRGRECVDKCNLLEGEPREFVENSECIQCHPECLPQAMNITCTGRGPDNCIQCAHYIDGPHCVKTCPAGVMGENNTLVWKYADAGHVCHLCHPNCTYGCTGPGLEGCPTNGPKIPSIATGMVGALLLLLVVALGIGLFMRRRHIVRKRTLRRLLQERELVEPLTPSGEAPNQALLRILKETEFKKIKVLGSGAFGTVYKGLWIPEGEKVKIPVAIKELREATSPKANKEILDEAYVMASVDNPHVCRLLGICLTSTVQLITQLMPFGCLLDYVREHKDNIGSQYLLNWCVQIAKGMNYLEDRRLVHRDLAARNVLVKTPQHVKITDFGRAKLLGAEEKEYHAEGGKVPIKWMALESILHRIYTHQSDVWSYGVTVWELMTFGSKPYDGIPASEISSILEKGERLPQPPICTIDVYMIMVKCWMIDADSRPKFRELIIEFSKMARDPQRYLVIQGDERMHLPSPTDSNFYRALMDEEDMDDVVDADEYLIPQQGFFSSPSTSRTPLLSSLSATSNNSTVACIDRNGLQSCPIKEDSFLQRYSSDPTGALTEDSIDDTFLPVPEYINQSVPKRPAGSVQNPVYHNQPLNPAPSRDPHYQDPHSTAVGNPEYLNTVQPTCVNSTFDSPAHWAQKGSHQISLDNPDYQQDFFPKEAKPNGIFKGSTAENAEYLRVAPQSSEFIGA
melting point [°C],pIC50 [1],pIC50 [2],pIC50 [3],pIC50 [5],pIC50 [6],inhibition at 10 µM [7] [%],SMILES,inhibition of the growth of v1 expressing 3T3 cells (tumor) [4] [%]
,7.29,7.03,6.17,,,,COc1cc(N2CCNCC2)ccc1Nc1ncnc(Nc2ccccc2S(=O)(=O)C(C)C)n1 [Example 72],
,7.30,7.06,6.67,,,,"CNS(=O)(=O)c1ccccc1Nc1ncnc(Nc2ccc(N3CCC(N4CCN(C)CC4)CC3)cc2OC)n1 [Example 7, 2-{[4-({2-methoxy-4-[4-(4-methylpiperazin-1-yl)piperidin-1-yl]phenyl}amino)-1,3,5-triazin-2-yl]amino}-N-methylbenzenesulfonamide]",
185 to 189,7.40,7.21,6.29,,,,COc1cc(N2CCC(N3CCN(C)CC3)CC2)ccc1Nc1ncnc(Nc2ccccc2S(=O)(=O)NC(C)C)n1 [Example 149],
,,,,,,99,"COc1cc2ncnc(Nc3ccc(O)c(Br)c3)c2cc1OC [Compound A, 4-[(3′-bromo-4′-hydroxyphenyl)amino]-6,7-dimethoxyquinazoline]",
,7.48,7.21,6.60,,,,COc1cc(N2CCC(N3CCN(C)CC3)CC2)ccc1Nc1ncnc(Nc2ccccc2S(=O)(=O)NC2CC2)n1 [Example 171],
132 to 135,7.21,6.87,6.29,,,,COc1cc(N2CCC3(CCCCN3C)CC2)ccc1Nc1ncnc(Nc2ccccc2S(=O)(=O)C(C)C)n1 [Example 12],
,7.13,6.77,6.18,,,,COc1cc(N2CCC3(CCCN3C)CC2)ccc1Nc1ncnc(Nc2ccccc2S(=O)(=O)C(C)C)n1 [Example 120],
,6.82,6.92,6.30,,,,COc1cc(N2CC(N3CCN(C)CC3)C2)ccc1Nc1ncnc(Nc2ccccc2S(=O)(=O)C(C)C)n1 [Example 176],
,7.54,6.90,5.99,,,,COc1cc(N2CCN(C)CC2)ccc1Nc1ncnc(Nc2ccccc2S(=O)(=O)C(C)C)n1 [Example 24],
,,,,,,56,"O=C(COc1ccc(OC(F)(F)F)cc1)NCc1nc(C(=O)NCCc2cccc(Cl)c2)cs1 [Compound B, N-[2-(3-chlorophenyl)ethyl]-2-[({[4-(trifluoromethoxy)phenoxy]acetyl}amino)methyl]-1,3-thiazole-4-carboxamide]",

# Further lines, the molecule ahead of its results:
SMILES,melting point [°C],pIC50 [1],pIC50 [2],pIC50 [3],pIC50 [5],pIC50 [6],inhibition at 10 µM [7] [%],inhibition of the growth of v1 expressing 3T3 cells (tumor) [4] [%]
COc1cc(N2CCN(C3CCN(C)CC3)CC2)ccc1Nc1nc(Nc2ccccc2S(=O)(=O)C(C)C)c2ccccc2n1 [Example 45],109 to 114,7.18,5.98,5.72,,,,
COc1cc(N2CCC(N3CCN(C)CC3)CC2)ccc1Nc1ncc(Cl)c(Nc2ccccc2S(=O)(=O)C(C)C)n1 [Compound C],,,,,,,,103
COc1cc(N2CCC(N3CCN(C)CC3)CC2)ccc1Nc1ncnc(Nc2ccccc2S(=O)(=O)N(C)C(C)C)n1 [Example 166],162 to 164,7.31,6.90,6.38,,,,
COc1cc(N2CCC(N3CCN(C)CC3)CC2)ccc1Nc1ncnc(Nc2ccccc2S(=O)(=O)N(C)C)n1 [Example 128],167 to 170,8.64,7.19,6.76,5.74,7.01,,
COc1cc(N2CCC(N3CCCC3)CC2)ccc1Nc1ncnc(Nc2ccccc2S(=O)(=O)C(C)C)n1 [Example 58],,7.60,6.81,6.19,,,,
COc1cc(N2CCC(N3CCC(O)C3)CC2)ccc1Nc1ncnc(Nc2ccccc2S(=O)(=O)C(C)C)n1 (stereo not shown) [Example 63],,7.59,7.02,6.10,,,,
COc1cc(N(C)C2CCN(C)CC2)ccc1Nc1ncnc(Nc2ccccc2S(=O)(=O)C(C)C)n1 [Example 52],,7.14,6.80,6.09,,,,
